Data reported in patent publication US5288757A, “Aminosulfonyl urea ACAT inhibitors and a method of lowering blood cholesterol levels therewith” (priority 1993, dated 1994).
Counter-ions that a name gives are not always drawn. Like-named read-outs stand apart in the source and are kept apart here.

Tests used:
[1] = molecular target: T1, acyl-CoA: cholesterol acyltransferase (ACAT) (Oryctolagus cuniculus, UniProt G1SFD9); test: in vitro inhibition of ACAT (IAI), radiolabeled cholesterol oleate formation in rabbit intestinal microsomes; type: biochemical
T1 construct: in a tissue preparation containing rabbit intestinal microsomes; from tissue; host or cells: rabbit intestinal microsomes
T1 sequence (G1SFD9 1-524): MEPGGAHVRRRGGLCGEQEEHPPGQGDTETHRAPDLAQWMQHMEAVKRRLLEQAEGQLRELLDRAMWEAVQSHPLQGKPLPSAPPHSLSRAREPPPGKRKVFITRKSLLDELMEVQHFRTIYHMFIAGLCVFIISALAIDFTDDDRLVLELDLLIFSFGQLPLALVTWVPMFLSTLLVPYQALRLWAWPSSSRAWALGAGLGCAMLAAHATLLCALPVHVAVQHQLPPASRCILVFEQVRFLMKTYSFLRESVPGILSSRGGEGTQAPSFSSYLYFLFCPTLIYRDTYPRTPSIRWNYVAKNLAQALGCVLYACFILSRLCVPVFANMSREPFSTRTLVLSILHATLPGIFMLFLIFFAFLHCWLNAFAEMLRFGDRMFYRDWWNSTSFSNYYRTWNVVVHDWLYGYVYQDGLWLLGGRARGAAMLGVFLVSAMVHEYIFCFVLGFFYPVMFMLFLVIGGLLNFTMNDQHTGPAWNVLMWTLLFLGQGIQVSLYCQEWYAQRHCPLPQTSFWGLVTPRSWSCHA
Procedure: The ability of representative compounds of the present invention to inhibit ACAT was measured using an in vitro test more fully described in F. J. Field and R. G. Salone, Biochemica et Biophysica 712:557-570 (1982). The test assesses the ability of a test compound to inhibit the acylation of cholesterol by oleic acid by measuring the amount of radiolabeled cholesterol oleate formed from radiolabeled oleic acid in a tissue preparation containing rabbit intestinal microsomes.

[2] = tested on: Plasma TC; test: in vivo screen designated APCC, plasma total cholesterol in rats on high fat, high cholesterol diet; design: species or system male Sprague-Dawley rats; conditions: read-out: % Change in Plasma TC Values (mg/dl)
Excerpt: In one in vivo screen designated APCC, male Sprague-Dawley rats (200 to 225 g) were randomly divided into treatment groups and dosed at 4 PM with either vehicle (CMC/Tween) or suspensions of compounds in vehicle. The normal chow diet was then replaced with a high fat, high cholesterol diet with 0.5% cholic acid. The rats consumed this diet ad libitum during the night and were sacrificed at 8 AM to obtain blood samples for cholesterol analysis using standard procedures. Statistical differences between mean cholesterol values for the same vehicle were determined using analysis of variance followed by Fisher's least significant test. Compounds were dosed at 30 mg/kg unless otherwise noted.

[3] = dosed at 30 mg/kg, rat, high fat, high cholesterol diet with 0.5% cholic acid

Structure (SMILES)	change in vivo at 30 mg/kg [2, 3] [%]	also measured
CC(C)c1cccc(C(C)C)c1NC(=O)NS(=O)(=O)N(C(C)C)C(C)C [Example 28, N-[2,6-bis(1-methylethyl)phenyl]-N'-[(diisopropylamino)sulfonyl]urea]	-60	IC50 [1]: 1100 nM
CC(C)c1cccc(C(C)C)c1NC(=O)NS(=O)(=O)N(C(C)C)C(C)(C)C [Example 35, N-[2,6-bis(1-methylethyl)phenyl]-N'-[[(1,1-dimethylethyl)(1-methylethyl)amino]sulfonyl]urea]	-71	
CCC(C)N(C(C)CC)S(=O)(=O)NC(=O)Nc1c(C(C)C)cccc1C(C)C (centres unmarked) [Example 36, N-[2,6-bis(1-methylethyl)phenyl]-N'-[[bis(1-methylpropyl)amino]sulfonyl]urea]	-71	
CCCCCCCCCCCCCCN(C)S(=O)(=O)NC(=O)Nc1c(C(C)C)cccc1C(C)C [Example 37, N-[2,6-bis(l-methylethyl)phenyl]-N'-[(methyltetradecylamino)sulfonyl]urea]	-65	
CC(C)c1cccc(C(C)C)c1NC(=O)NS(=O)(=O)N1CCCC1 [Example 38, Urea, N-[2,6-bis(1-methylethyl)phenyl]-N'-(1-pyrrolidinylsulfonyl)]	-49	
CC(C)c1cccc(C(C)C)c1NC(=O)NS(=O)(=O)N1CCCCC1 [Example 39, Urea, N-[2,6 bis(1-methylethyl)phenyl]-N'-(1-piperidinylsulfonyl)]	-13	
CC(C)c1cccc(C(C)C)c1NS(=O)(=O)NC(=O)N(Cc1ccccc1)Cc1ccccc1 [Example 42, N,-[[[2,6-bis(1-methylethyl)phenyl]amino]sulfonyl]-N,N-bis(phenylmethyl) urea]	-44	
CCCCN(CCCC)S(=O)(=O)NC(=O)Nc1c(C(C)C)cccc1C(C)C [Example 43, N-[2,6-bis(1-methylethyl)phenyl]-N'-[(dibutylamino)sulfonyl]urea, monosodium salt]		change in vivo at 30 mg/kg ([2]; Rattus norvegicus): -68%
CCCCN(CCCC)S(=O)(=O)N(C)C(=O)Nc1c(C(C)C)cccc1C(C)C [Example 44]	-8	IC50 ([1]; rabbit intestinal microsomes, read-out: IAI IC50): > 5000 nM
